Patent publication US9115117B2, “Substituted piperidine compounds and their use as orexin receptor modulators” (JANSSEN PHARMACEUTICA NV, priority 2013, dated 2015)
pKi: −log10 of the molar value. Where a name gives a salt, the structure may show the parent alone.

Legend:
human orexin 2 receptor = human orexin 2 receptor (Homo sapiens (Human), UniProt O43614); assay: Human orexin 2 receptor radioligand binding ([3H]-EMPA); conditions: HEK293 stably expressing human orexin 2 receptor; [3H]-EMPA; apparent Ki; read-out: hOX2 Ki
Protocol: After centrifugation (2K×G, 5 min at 4° C.), the supernatant was aspirated and the pellets frozen and stored at −80° C. […] Each cell pellet from a 15 cm plate was resuspended in 10 mL, stored on ice, and homogenized for 45 sec just prior to addition to the reactions. Competition binding experiments in 96 well polypropylene plates were performed using [^3H]-EMPA (Moraveck Corporation, specific activity=29.6 Ci/mmol), diluted to a 5 nM concentration in PBS (2 nM final concentration). […] The final concentration of DMSO in the reactions is equal to or less than 0.1%. Total and nonspecific binding was determined in the absence and presence of […]. The total volume of each reaction is 200 μL (20 μL of diluted compounds, 80 μL of [^3H]-EMPA diluted in PBS and 100 μL of the cell suspension).
The plates were washed 3 times by aspirating 30 ml PBS through the plates. Plates were dried in 55° C. oven for 60 min, scintillation fluid was added, and the radioactivity was counted on a Topcount (Packard).

rat orexin 1 receptor = rat orexin 1 receptor (Rattus norvegicus, UniProt P56718); assay: Rat orexin 1 receptor radioligand binding; conditions: HEK293 cells stably expressing rat orexin 1 receptor; apparent Ki; read-out: rOX1 Ki
Protocol: After centrifugation (2K×G, 5 min at 4° C.), the supernatant was aspirated and the pellets frozen and stored at −80° C. […] Each cell pellet from a 15 cm plate was resuspended in 10 mL, stored on ice, and homogenized for 45 sec prior to addition to the reactions. Competition binding experiments in 96 well polypropylene plates were performed using [^3H]-(1-(5-(2-fluoro-phenyl)-2-methyl-thiazol-4-yl)-1-((S)-2-(5-phenyl-(1,3,4)oxadiazol-2-ylmethyl)-pyrrolidin-1-yl)-methanone) (Moraveck Corporation, specific activity=35.3 Ci/mmol), diluted to a 10 nM concentration in PBS (4 nM final). […] The final concentration of DMSO in the reactions is equal to or less than 0.1%. Total and nonspecific binding was determined in the absence and presence of 10 μM almorexant. The total volume of each reaction is 200 μL (20 μL of diluted compounds, 80 μL of [3H]-(1-(5-(2-fluoro-phenyl)-2-methyl-thiazol-4-yl)-1-((S)-2-(5-phenyl-(1,3,4)oxadiazol-2-ylmethyl)-pyrrolidin-1-yl)-methanone) diluted in PBS and 100 μL of the cell suspension). […] The plates were washed 3 times by aspirating 30 ml PBS through the plates. Plates were dried in 55° C. oven for 60 min, scintillation fluid was added, and the radioactivity was counted on a Topcount (Packard).

human orexin 1 receptor = human orexin 1 receptor (Homo sapiens, UniProt O43613); assay: Human orexin 1 receptor radioligand binding; conditions: CHO cells stably expressing human orexin 1 receptor; apparent Ki; read-out: hOX1 Ki
Protocol: The in vitro affinity of the compounds of the invention for the rat/human orexin 1 and human orexin 2 receptors was determined by competitive radioligand binding using [^3H](1-(5-(2-fluoro-phenyl)-2-methyl-thiazol-4-yl)-1-((S)-2-(5-phenyl-(1,3,4)oxadiazol-2-ylmethyl)-pyrrolidin-1-yl)-methanone)(Langmead et al., 2004) and [^3H]EMPA (n-ethyl-2[96-methoxy-pyridin-3-yl)-(toluene-2-sulfonyl)-amino]-N-pyridin-3-ylmethyl acetamide), respectively (Langmead et al., 2004, British Journal of Pharmacology 141:340-346; Malherbe et al., 2004, British Journal of Pharmacology 156:1326-41).
Human Embryonic Kidney 293 cells (HEK293) stably expressing rat orexin 1 receptor (Genebank accession number NM_001525) or Chinese ovary cells (CHO) stably expressing human orexin 1 receptor (Genebank accession number NM_001526) were grown to confluency in DMEM (Hyclone, cat #SH30022), 10% FBS, 1× Pen/Strep, 1× sodium pyruvate, 10 mM HEPES, 600 µg/mL G418 and DMEM/F12 (Gibco, Cat #11039), 10% FBS, 1× Pen/Strep, 600 µg/mL G418 media, respectively on 150 cm^2 tissue culture plates, washed with 5 mM EDTA in PBS (HyClone Dulbecco's Phoshpate Buffered Saline 1× with Calcium and Magnesium, Cat #SH30264.01, hereafter referred to simply as PBS) and scraped into 50 ml tubes. After centrifugation (2K×G, 5 min at 4° C.), the supernatant was aspirated and the pellets frozen and stored at −80° C. Cells were resuspended in PBS in the presence of 1 tablet of protease inhibitor cocktail (Roche, Cat. #11836145001) per 50 mL. Each cell pellet from a 15 cm plate was resuspended in 10 mL, stored on ice, and homogenized for 45 sec prior to addition to the reactions. Competition binding experiments in 96 well polypropylene plates were performed using [^3H]-(1-(5-(2-fluoro-phenyl)-2-methyl-thiazol-4-yl)-1-((S)-2-(5-phenyl-(1,3,4)oxadiazol-2-ylmethyl)-pyrrolidin-1-yl)-methanone) (Moraveck Corporation, specific activity=35.3 Ci/mmol), diluted to a 10 nM concentration in PBS (4 nM final). […] The final concentration of DMSO in the reactions is equal to or less than 0.1%. Total and nonspecific binding was determined in the absence and presence of 10 μM almorexant. The total volume of each reaction is 200 μL (20 μL of diluted compounds, 80 μL of [3H]-(1-(5-(2-fluoro-phenyl)-2-methyl-thiazol-4-yl)-1-((S)-2-(5-phenyl-(1,3,4)oxadiazol-2-ylmethyl)-pyrrolidin-1-yl)-methanone) diluted in PBS and 100 μL of the cell suspension). Reactions were run for 60 min at room temperature and terminated by filtration through GF/C filter plates (PerkinElmer, Cat. #6005174) presoaked in 0.3% polyethylenimine using the cell harvester (PerkinElmer Filtermate). The plates were washed 3 times by aspirating 30 ml PBS through the plates. Plates were dried in 55° C. oven for 60 min, scintillation fluid was added, and the radioactivity was counted on a Topcount (Packard).

Sequence of human orexin 2 receptor (O43614 whole entry): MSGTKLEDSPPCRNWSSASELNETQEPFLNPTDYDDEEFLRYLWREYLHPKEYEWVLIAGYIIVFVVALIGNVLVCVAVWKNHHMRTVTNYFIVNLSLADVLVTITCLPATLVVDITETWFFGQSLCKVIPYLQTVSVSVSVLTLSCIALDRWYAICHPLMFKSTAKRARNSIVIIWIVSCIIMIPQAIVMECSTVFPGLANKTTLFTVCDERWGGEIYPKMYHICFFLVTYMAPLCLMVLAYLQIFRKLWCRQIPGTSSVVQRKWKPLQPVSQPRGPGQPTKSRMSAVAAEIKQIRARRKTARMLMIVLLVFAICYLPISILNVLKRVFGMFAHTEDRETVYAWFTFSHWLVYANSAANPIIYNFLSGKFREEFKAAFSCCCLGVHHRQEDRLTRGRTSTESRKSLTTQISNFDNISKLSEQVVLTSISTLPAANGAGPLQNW

| Compound | pKi (human orexin 2 receptor) | pKi (rat orexin 1 receptor) | pKi (human orexin 1 receptor) |
| --- | --- | --- | --- |
| Cc1ccc(C(=O)N2CCC[C@@H](Nc3ccc(C(F)(F)F)cn3)[C@@H]2C)c(-n2nccn2)c1 (racemic) [Example 13, (±)-trans-(4-methyl-2-(2H-1,2,3-triazol-2-yl)phenyl)(2-methyl-3-((5-(trifluoromethyl)pyridin-2-yl)amino)piperidin-1-yl)methanone] | 6.04 | 7.82 | 8.05 |
| C[C@H]1[C@H](Nc2ccc(C(F)(F)F)cn2)CCCN1C(=O)c1cc(Cl)ccc1-n1nccn1 (racemic) [Example 17, (±)-trans-(5-chloro-2-(2H-1,2,3-triazol-2-yl)phenyl)(2-methyl-3-((5-(trifluoromethyl)pyridin-2-yl)amino)piperidin-1-yl)methanone] | 6.66 | 7.96 | 8.10 |
| COc1ccc(-n2nccn2)c(C(=O)N2CCC[C@@H](Nc3ccc(C(F)(F)F)cn3)[C@@H]2C)c1 (racemic) [Example 19, (±)-trans-(5-methoxy-2-(2H-1,2,3-triazol-2-yl)phenyl)(2-methyl-3-((5-(trifluoromethyl)pyridin-2-yl)amino)piperidin-1-yl)methanone] | 6.62 | 8.00 | 8.00 |
| Cc1cccc(C(=O)N2CCC[C@@H](Nc3ccc(C(F)(F)F)cn3)[C@@H]2C)c1-n1nccn1 (racemic) [Example 20, (±)-trans-(3-methyl-2-(2H-1,2,3-triazol-2-yl)phenyl)(2-methyl-3-((5-(trifluoromethyl)pyridin-2-yl)amino)piperidin-1-yl)methanone] | 6.82 | 7.85 | 8.10 |
| Cc1ccc(-c2ncco2)c(C(=O)N2CCC[C@@H](Nc3ccc(C(F)(F)F)cn3)[C@@H]2C)n1 (racemic) [Example 22, (±)-trans-(2-methyl-3-((5-(trifluoromethyl)pyridin-2-yl)amino)piperidin-1-yl)(6-methyl-3-(oxazol-2-yl)pyridin-2-yl)methanone hydrochloride] | 6.37 | 7.48 | 7.72 |
| Cc1ccc(-c2ncccn2)c(C(=O)N2CCC[C@@H](Nc3ccc(C(F)(F)F)cn3)[C@@H]2C)n1 (racemic) [Example 23, (±)-trans-(2-methyl-3-((5-(trifluoromethyl)pyridin-2-yl)amino)piperidin-1-yl)(6-methyl-3-(pyrimidin-2-yl)pyridin-2-yl)methanone hydrochloride] | 6.68 | – | 7.64 |
| CCOc1ccccc1C(=O)N1CCC[C@@H](Nc2ccc(C(F)(F)F)cn2)[C@@H]1C (racemic) [Example 29, (±)-trans-(2-ethoxyphenyl)(2-methyl-3-((5-(trifluoromethyl)pyridin-2-yl)amino)piperidin-1-yl)methanone] | 5.85 | 7.01 | 7.05 |
| C[C@H]1[C@H](Nc2ncc(Cl)cn2)CCCN1C(=O)c1ccccc1-n1nccn1 (racemic) [Example 30, (±)-trans-(2-(2H-1,2,3-triazol-2-yl)phenyl)(3-((5-chloropyrimidin-2-yl)amino)-2-methylpiperidin-1-yl)methanone] | – | 7.26 | 7.27 |
| C[C@H]1[C@H](Nc2ccc(C(F)(F)F)nn2)CCCN1C(=O)c1ccccc1-n1nccn1 (racemic) [Example 33, (±)-trans-(2-(2H-1,2,3-triazol-2-yl)phenyl)(2-methyl-3-((6-(trifluoromethyl)pyridazin-3-yl)amino)piperidin-1-yl)methanone hydrochloride] | 5.32 | 6.70 | 6.80 |
| Cc1ccc(N[C@@H]2CCCN(C(=O)c3ccccc3-n3nccn3)[C@H]2C)nc1 (racemic) [Example 37, (±)-trans-(2-(2H-1,2,3-triazol-2-yl)phenyl)(2-methyl-3-((5-methylpyridin-2-yl)amino)piperidin-1-yl)methanone] | – | 7.12 | 7.15 |
| C[C@H]1[C@H](Nc2cnc(C(F)(F)F)cn2)CCCN1C(=O)c1ccccc1-n1nccn1 (racemic) [Example 38, (±)-trans-(2-(2H-1,2,3-triazol-2-yl)phenyl)(2-methyl-3-((5-(trifluoromethyl)pyrazin-2-yl)amino)piperidin-1-yl)methanone] | 6.28 | 7.74 | 7.60 |
| CCOc1ccccc1C(=O)N1CCC[C@@H](Nc2ccc(Br)cn2)[C@@H]1C (racemic) [Example 44, (±)-trans-(3-(5-bromopyridin-2-yl)amino)-2-methylpiperidin-1-yl)(2-ethoxyphenyl)methanone] | 5.80 | 7.09 | 7.14 |
| C[C@H]1[C@H](Nc2nc3cc(Cl)ccc3o2)CCCN1C(=O)c1ccccc1-n1nccn1 (racemic) [Example 45, (±)-trans-(2-(2H-1,2,3-triazol-2-yl)phenyl)(3-((5-chlorobenzo[d]oxazol-2-yl)amino)-2-methylpiperidin-1-yl)methanone] | 6.55 | 7.55 | 7.59 |
| Cc1ccc(C(=O)N2CCC[C@@H](Nc3ccc(C(F)(F)F)cn3)[C@@H]2C)c(-n2nccn2)c1 [Example 14, (4-methyl-2-(2H-1,2,3-triazol-2-yl)phenyl)((2S,3R)-2-methyl-3-((5-(trifluoromethyl)pyridin-2-yl)amino)piperidin-1-yl)methanone] | 6.17 | 8.05 | 8.15 |
| Cc1ccc(-c2ncco2)c(C(=O)N2CCC[C@@H](Nc3ccc(C(F)(F)F)cn3)[C@@H]2C)n1 [Example 25, ((2S,3R)-2-methyl-3-((5-(trifluoromethyl)pyridin-2-yl)amino)piperidin-1-yl)(6-methyl-3-(oxazol-2-yl)pyridin-2-yl)methanone hydrochloride] | 6.72 | 7.96 | 7.72 |
| Cc1cnc(C(=O)N2CCC[C@@H](Nc3ccc(C(F)(F)F)cn3)[C@@H]2C)c(-n2nccn2)c1 [Example 26, ((2S,3R)-2-methyl-3-((5-(trifluoromethyl)pyridin-2-yl)amino)piperidin-1-yl)(5-methyl-3-(2H-1,2,3-triazol-2-yl)pyridin-2-yl)methanone] | 5.69 | 7.96 | 7.85 |
